Measured values: publication PMC9785202, “Changes in Disposition of Ezetimibe and Its Active Metabolites Induced by Impaired Hepatic Function: The Influence of Enzyme and Transporter Activities” (Pharmaceutics, 2022)

Assays:
liver slices = assay: Uptake of EZE-Ph in liver slices of control and CCl4-induced rats; assay type: in vitro ADME, rat; details: 10 μM EZE-Ph, 10 min
Experimental: Liver slices were prepared as previously described elsewhere. Rats were anesthetized and sacrificed via exsanguination from the abdominal aorta, and the livers were excised. Liver cylindrical cores of an 8 mm diameter were made before slicing. Liver slices with a thickness of 300 μm were obtained using a Krumdieck tissue slicer MD6000 (TSE systems, Chesterfield, MO) with ice-cold and carbogen-saturated Krebs–Henseleit buffer.
After 5 min of preincubation at 4 and 37 °C, the liver slices were transferred to 24-well plates containing 500 μL of buffer with 10 μM EZE-Ph for 10 min. After incubation, the liver slices were washed 3 times with ice-cold HBSS and dried on filter paper. Each liver slice was homogenized with 200 μL of purified water and the protein content was determined using a BCA protein assay kit. The concentration of EZE-Ph was determined using LC-MS/MS.

OATP1B1 = target: T1, OATP1B1 (Homo sapiens, UniProt Q9Y6L6); assay: Uptake of EZE-Ph into OATP1B1-transfected HEK293 cells; assay type: in vitro ADME
T1 construct: host or cells: HEK293
T1 sequence (Q9Y6L6 1-691): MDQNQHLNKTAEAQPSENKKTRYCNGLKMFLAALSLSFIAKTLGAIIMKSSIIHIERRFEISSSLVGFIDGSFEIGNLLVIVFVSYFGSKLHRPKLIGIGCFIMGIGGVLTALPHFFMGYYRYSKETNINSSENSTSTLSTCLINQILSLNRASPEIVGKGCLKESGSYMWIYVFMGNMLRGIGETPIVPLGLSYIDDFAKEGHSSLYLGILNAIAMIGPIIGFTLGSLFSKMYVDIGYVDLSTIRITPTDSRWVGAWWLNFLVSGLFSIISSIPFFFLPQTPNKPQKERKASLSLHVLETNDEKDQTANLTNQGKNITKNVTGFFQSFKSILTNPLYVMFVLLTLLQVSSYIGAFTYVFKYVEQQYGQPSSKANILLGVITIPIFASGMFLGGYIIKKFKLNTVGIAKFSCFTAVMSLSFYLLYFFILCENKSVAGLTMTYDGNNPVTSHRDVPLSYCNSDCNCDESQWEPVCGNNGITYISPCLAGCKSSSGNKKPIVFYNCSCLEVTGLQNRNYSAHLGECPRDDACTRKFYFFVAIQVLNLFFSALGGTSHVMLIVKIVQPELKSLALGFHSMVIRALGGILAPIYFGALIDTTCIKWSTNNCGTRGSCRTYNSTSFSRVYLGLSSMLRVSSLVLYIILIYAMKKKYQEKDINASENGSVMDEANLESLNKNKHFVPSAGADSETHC
Experimental: (§1) The kinetic parameters and the half inhibitory concentration (IC50) were calculated using GraphPad Prism. […] The intrinsic clearance (CLint) was calculated as CLint = Vmax/Km.

OATP2B1 = target: T2, OATP2B1 (Homo sapiens, UniProt O94956); assay: Uptake of EZE-Ph into OATP2B1-transfected HEK293 cells; assay type: in vitro ADME
T2 construct: host or cells: HEK293
T2 sequence (O94956 1-709): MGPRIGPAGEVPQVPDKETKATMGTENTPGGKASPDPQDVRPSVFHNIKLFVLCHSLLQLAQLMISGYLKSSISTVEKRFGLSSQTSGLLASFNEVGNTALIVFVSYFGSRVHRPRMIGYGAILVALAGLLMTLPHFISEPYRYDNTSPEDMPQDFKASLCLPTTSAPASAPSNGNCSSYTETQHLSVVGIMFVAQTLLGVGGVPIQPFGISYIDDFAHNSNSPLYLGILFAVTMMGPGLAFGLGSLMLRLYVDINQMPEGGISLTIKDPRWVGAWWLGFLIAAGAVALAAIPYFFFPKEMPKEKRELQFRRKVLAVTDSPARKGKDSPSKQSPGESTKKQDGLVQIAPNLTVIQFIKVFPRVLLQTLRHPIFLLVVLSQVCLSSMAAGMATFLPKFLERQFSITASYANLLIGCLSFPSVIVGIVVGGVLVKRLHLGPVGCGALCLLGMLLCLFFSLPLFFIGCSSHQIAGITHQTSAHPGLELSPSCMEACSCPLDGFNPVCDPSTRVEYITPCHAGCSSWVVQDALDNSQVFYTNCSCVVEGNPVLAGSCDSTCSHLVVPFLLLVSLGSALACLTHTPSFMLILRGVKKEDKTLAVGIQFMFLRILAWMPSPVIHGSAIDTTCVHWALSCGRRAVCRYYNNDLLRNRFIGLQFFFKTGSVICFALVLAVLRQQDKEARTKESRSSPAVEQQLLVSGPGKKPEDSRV
Experimental: as §1

[1] = parameters: method as in PMID 10780982; details: intraduodenal administration of EZE; cited from earlier work
OAT3 = target: T3, OAT3 (Homo sapiens, UniProt Q8TCC7); assay: Uptake of EZE-Ph into OAT3-transfected HEK293 cells; assay type: in vitro ADME
T3 construct: host or cells: HEK293
T3 sequence (Q8TCC7 1-542): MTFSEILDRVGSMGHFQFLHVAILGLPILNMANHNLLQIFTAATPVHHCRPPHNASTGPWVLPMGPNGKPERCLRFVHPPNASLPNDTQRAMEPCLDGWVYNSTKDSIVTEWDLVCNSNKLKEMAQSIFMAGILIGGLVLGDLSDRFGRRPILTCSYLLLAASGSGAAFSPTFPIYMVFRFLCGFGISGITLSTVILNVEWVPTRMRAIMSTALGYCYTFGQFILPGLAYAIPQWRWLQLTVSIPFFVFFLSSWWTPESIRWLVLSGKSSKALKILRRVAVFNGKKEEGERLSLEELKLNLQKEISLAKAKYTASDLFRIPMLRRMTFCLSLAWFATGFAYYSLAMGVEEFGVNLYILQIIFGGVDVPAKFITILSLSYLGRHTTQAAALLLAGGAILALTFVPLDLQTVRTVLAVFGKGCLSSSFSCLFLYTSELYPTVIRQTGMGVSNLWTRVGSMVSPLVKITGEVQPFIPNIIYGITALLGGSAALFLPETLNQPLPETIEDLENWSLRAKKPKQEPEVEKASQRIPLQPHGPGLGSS
Experimental: as §1

For `O=C(O)[C@H]1O[C@@H](Oc2ccc([C@@H]3[C@@H](CC[C@H](O)c4ccc(F)cc4)C(=O)N3c3ccc(F)cc3)cc2)[C@H](O)[C@@H](O)[C@@H]1O` [EZE-Ph, ezetimibe phenoxy β-D-glucuronide], the “EZE-Ph uptake in liver slices, 37 °C vs 4 °C” value (liver slices) was “significantly greater at 37 °C than 4 °C”, the “EZE-Ph uptake in liver slices, control vs CCl4-induced rats” value (liver slices) was “no significant difference” and the “uptake in transporter-transfected cells relative to mock-transfected cells” value (OATP1B1; 10 μM EZE-Ph, OATP1B1 HEK293) was 5.3 times. The CLint (OATP1B1; OATP1B1 HEK293, CLint = Vmax/Km) was 0.56 μL/min/mg Protein, the “Kinetic Model” value (OATP1B1; OATP1B1 HEK293, uptake time 5 min) was “Substrate inhibition” and the “uptake in transporter-transfected cells relative to mock-transfected cells” value (OATP2B1; 10 μM EZE-Ph, OATP2B1 HEK293) was 3.7 times. The CLint (OATP2B1; OATP2B1 HEK293, CLint = Vmax/Km) was 0.56 μL/min/mg Protein, the “Kinetic Model” value (OATP2B1; OATP2B1 HEK293, uptake time 5 min) was “Michaelis–Menten” and the “EZE-Ph generated in the intestine” value [1] was over 95%. The “uptake in transporter-transfected cells relative to mock-transfected cells” value (OAT3; 10 μM EZE-Ph, OAT3 HEK293) was 8.9 times, the CLint (OAT3; OAT3 HEK293, CLint = Vmax/Km) was 1.84 μL/min/mg Protein and the “h (Hill slope)” value (OAT3; OAT3 HEK293, allosteric sigmoidal model) was 1.19. For the same molecule, the “Kinetic Model” value (OAT3; OAT3 HEK293, uptake time 5 min) was “Allosteric sigmoidal”.
